Experimental data: US20130071439A1, “METHODS AND COMPOSITIONS FOR TREATING BIOFILMS” (PRESIDENT AND FELLOWS OF HARVARD COLLEGE, priority 2010, published 2013)

Columns and labels:
[1] = system: yqxM operon (strain FC122); assay: Expression of PyqxM-lacZ (β-galactosidase activity); format: cell-based, Bacillus subtilis
Protocol: (§1) Assays of β-galactosidase activity. Cells were cultured in MSgg medium at 37° C. in a water bath with shaking 1 ml of culture was collected at each time point. β-galactosidase activity was determined as described previously (Chai et al., Mol. Microbiol. 67:254 (2008)).

B. subtilis [2] = assay: Effect on cell growth in MSgg medium with shaking; format: cell-based, Bacillus subtilis
[3] = system: B. subtilis strain NCIB3610; assay: Colony biofilm formation on solid MSgg medium; format: cell-based, Bacillus subtilis; conditions: 4 days
Protocol: (§2) For colony formation on solid medium, cells were first grown to exponential growth phase in LB broth and 3 μl of culture were spotted onto solid MSgg medium containing 1.5% Bacto agar. The plates were incubated at 23° C. For pellicle formation in liquid medium, cells were grown to exponential phase and 6 μl of culture were mixed with 6 ml of medium in a 12-well plate (VWR). Plates were incubated at 23° C. Images of colonies and pellicles were taken using a SPOT camera (Diagnostic Instruments, USA).

eps operon (strain FC5) = assay: Expression of PepsA-lacZ (β-galactosidase activity); format: cell-based, Bacillus subtilis
Protocol: as §1

[4] = system: B. subtilis strain NCIB3610; assay: Pellicle (biofilm) formation in liquid biofilm-inducing medium; format: cell-based, Bacillus subtilis; conditions: for effect on pellicle formation / effect on biofilm formation: 3 days; for biofilm-inhibition assay for B. subtilis: concentration not given
Protocol: as §2
To investigate whether mature biofilms produce a factor that triggers biofilm disassembly, the effect of concentrated and partially purified extracts of conditioned medium on pellicle formation when added to fresh medium was assayed. To this end, conditioned medium from an eight-day-old culture was applied to a C18 Sep Pak column. Concentrated eluate from the column was then added to a freshly inoculated culture. […] Further purification of the factor was achieved by eluting the cartridge in step-wise fashion with increasing concentrations of methanol.
D-tyrosine, D-leucine, D-tryptophan, and D-methionine were screened for inhibiting biofilm formation by B. subtilis both in liquid and on solid medium (FIG. 2A, 5, 6).
Next, the minimum concentration (MIC for Minimal Inhibitory Concentration) needed to prevent biofilm formation was determined.

[5] = system: Pseudomonas aeruginosa PA14; assay: Biofilm formation on polystyrene, crystal violet staining; format: cell-based
Protocol: (§3) Crystal violet staining was done as described previously (O'Toole et al., Mol. Microbiol. 30:295 (1998)) except that the cells were grown in […]. Wells were stained with 500 μl of 1.0% Crystal-violet dye, rinsed twice with 2 ml double-distilled water and thoroughly dried.
P. aeruginosa strain […] was grown in 12-well polystyrene plates for 48 hours at 30° C. in M63 medium containing glycerol (0.2%) and Casamino acids ([…]). Additionally added to the wells were no amino acids (untreated), D-tyrosine or the D-amino acid equimolar mixture. Cells bound to the polystyrene were visualized by washing away unbound cells and then staining with crystal violet. Wells were stained with […] of 1.0% Crystal-violet dye, rinsed twice with 2 ml double-distilled water and thoroughly dried.
(§4) For experiments reported in Table 1, the organism/strain was S.a. Harvard SCO1, the culture medium was TSB and the cell inoculation was at 2×10^9 cfu. For experiments reported in Table 2, the organism/strain was […], the culture medium was M63 and the cell inoculation was at 1.5×10^9 cfu. Biofilm was visualized using the crystal violet method.

P.a. Harvard PA14 = assay: Biofilm (colony architecture) formation on M63 defined solid medium; format: cell-based, Pseudomonas aeruginosa; conditions: 500 μM (L-tryptophan: concentration not given)
Text: Similarly to Bacillus subtilis, Pseudomonas aeruginosa forms a complex architecture on defined medium. These complex structures require the proper formation and assembly of the extra-cellular matrix. […] For these experiments, the organism/strain was P.a. Harvard PA14, the culture medium was M63 and the cell inoculation was at 1.5×10^9 cfu.

cell wall = assay: Incorporation of radioactive amino acids into the cell wall; format: cell-based, Bacillus subtilis; conditions: 14C-labelled, 10 μCi/ml, 2 h at 37° C.
Protocol: Incorporation of amino acids into the cell wall. Cells in 50 ml of culture at the mid exponential phase of growth were harvested by centrifugation and washed with 0.05 M of phosphate buffer (pH 7) and re-suspended in 5 ml of the same buffer. […] The radioactivity of whole cells and cell wall fraction was monitored, and, at intervals samples were removed. For measurement of incorporation into whole cells, 0.1 ml samples were collected. For measurements of incorporation into cell wall, 0.5 ml samples were collected. The cells were harvested by centrifugation and re-suspended in SM buffer [0.5 M sucrose, 20 mM MgCl2, and 10 mM potassium phosphate at pH (6.8)] containing 0.1 mg/ml lysozyme. The cells were then incubated at 37° C. for 10 min. Next, the resulting protoplasts were removed by centrifugation at 5000 rpm for 10 min, leaving the cell wall material in the supernatant fluid. […] Finally, 10 ml of 5% trichloroacetic acid was added to the whole cell samples and the cell wall material and maintained on ice for at least 30 min. The TCA-insoluble material was collected on Millipore filters (0.22 μm pore size, Millipore) and washed with 5% TCA. The filters were air-dried and placed in scintillation vials and the TCA-insoluble counts per minute were determined using a scintillation counter.

TasA fibers = assay: Cell association of TasA fibers by electron microscopy (immunogold); format: cell-based, Bacillus subtilis; conditions: 0.1 mM, 12 hours, Δeps cells
Protocol: Transmission electron microscopy and immunolabeling. Samples were diluted with distilled water and adsorbed onto a carbon or formvar/carbon coated grid. The grid surface was made hydrophilic prior to use with glow discharge in a vacuum evaporator. Once the specimen was adsorbed onto the film surface, the excess sample was blotted off on a filter paper (Whatman #1) and the grid was floated on 5 μl of stain solution (1-2% aqueous uranyl acetate) for a few minutes and then blotted off. The samples were dried and examined in a Tecnai™ G^2 Spirit BioTWIN microscope at an accelerating voltage of 80 KV. Images were taken with an AMT 2k CCD camera. […]
The cells were grown to stationary phase with shaking in biofilm-inducing medium in the presence or absence of D-tyrosine (6 μM). […] When the cells were washed by centrifugation, resuspended and then examined by fluorescence microscopy, untreated cells (which were often in clumps) were seen to be intensely decorated with TasA-mCherry. […] The localization of unmodified TasA protein was also analyzed by transmission electron microscopy using gold-labeled anti-TasA antibodies. […]

TasA-mCherry = format: cell-based, Bacillus subtilis; conditions: 6 μM
Protocol: For fluorescence microscopy analysis, 1 ml of culture was harvested. The cells were washed with PBS buffer and suspended in 50 μl of PBS buffer. Cover slides were pretreated with poly L-lysine (Sigma). Samples were examined using an Olympus workstation BX61 microscope. Images were taken using the automated software program SimplePCI and analyzed with program MetaMorph (Universal Imaging Corporation).
The cells were grown to stationary phase with shaking in biofilm-inducing medium in the presence or absence of D-tyrosine (6 μM). […] When the cells were washed by centrifugation, resuspended and then examined by fluorescence microscopy, untreated cells (which were often in clumps) were seen to be intensely decorated with TasA-mCherry. […] The localization of unmodified TasA protein was also analyzed by transmission electron microscopy using gold-labeled anti-TasA antibodies. […] 24-hour-old cultures were incubated without (images 1 and 2) or with (images 3-6) D-tyrosine (0.1 mM) for an additional 12 hours. TasA fibers were stained by immunogold labeling using anti-TasA antibodies, and visualized by transmission electron microscopy as described in the Examples. […] Filled arrows indicate fiber bundles; open arrows indicate individual fibers. The scale bar is 500 nm. The scale bar in the enlargements of images 2, 4 and 6 is 100 nm. […]

Pseudomonas aeruginosa = assay: Attached single cells in 6 well plate, Syto-9/SYTOX staining; format: cell-based
Protocol: An alternative method to observe biofilm formation on a 6 well plate with or without D-amino acids and using Syto-9 staining was as follows: Pseudomonas aeruginosa biofilms were washed twice with PBS and then fixed for at least an hour in 5% Glutaraldehyde in PBS. The fixed biofilms were then rinsed once again with PBS and soaked in 0.1% v/v Triton X-100 in PBS (PBST) for 15 minutes. The solution was exchanged with 0.1 nM SYTOX green (Invitrogen) in cold PBST and gently rocked in the dark for at least 15 minutes. Fluorescence images of the biofilms were captured with a Leica DMRX compound microscope using a Xe lamp and a K3 Leica filtercube. […] The amount of attached single cells was quantified using image J. The decrease in the amount of cells attached to the epoxy surfaces soaked with D-aa compared with the L-aa control was substantially more.

S. aureus (strain SCO1) = assay: Biofilm formation on polystyrene, crystal violet staining; format: cell-based, Staphylococcus aureus; conditions: 50 μM, 24 hours at 37° C., TSB
Protocol: as §3
The effect of D-amino acids on biofilm formation by other bacteria was examined. The pathogenic bacterium Staphylococcus aureus forms biofilms on plastic surfaces (Otto, Curr. Top. Microbiol. Immunol. 322:207 (2008)), which can be detected by washing away unbound cells and staining the bound cells with crystal violet. […] Additionally added to the wells were no amino acids (untreated), D-tyrosine (50 μM) or the D-amino acid mixture ([…] each). Cells bound to the polystyrene were visualized by washing away unbound cells and then staining with crystal violet.
as §4, with “method. The data is shown below in Tables 1 and 2:” for “method.”
For experiments reported in Tables 3 and 4, the organism/strain was S.a. Harvard SCO1, the culture medium was TSB and the cell inoculation was at 2×10^9 cfu. […]

B. subtilis [6] = assay: Disruption of existing biofilms (3 day-old pellicles); format: cell-based, Bacillus subtilis; conditions: 3 μM added to 3 day-old culture, 8 hours
[7] = complete inhibition of pellicle formation

For `CC(C)C[C@@H](N)C(=O)O` [D-Leu, D-leucine], the yqxM expression ([1]; 8.5 mM) was “substantially the same as the untreated sample”, the cell growth (B. subtilis [2]; 8.5 mM) was “substantially the same as the untreated sample” and the “effect on biofilm formation on solid medium” value ([3]; 8.5 mM) was “inhibited biofilm formation”. For the same molecule, the eps expression (eps operon (strain FC5); 8.5 mM) was “substantially the same as the untreated sample”, the “effect on pellicle formation” value ([4]; 8.5 mM added to freshly inoculated culture in biofilm-inducing medium) was “significant inhibition of biofilm growth” and the “minimum concentration (MIC) needed to prevent biofilm formation” value (“minimum concentration (MIC) needed” below) [4, 7] was “around 1 mM”. For the same molecule, the “biofilm-inhibition assay for B. subtilis” value [4] was “significant inhibition of biofilm growth”.
In the case of `CSCC[C@@H](N)C(=O)O` [D-Met, D-methionine], the inhibition at 10 µM ([5]; Pseudomonas aeruginosa, PA14, 10 μM, 48 h/30° C., Polystyrene, read-out: % Inhibition relative to control (0%, <50%, 50-90%, >90%)) is reported as 0%, the inhibition at 100 µM ([5]; Pseudomonas aeruginosa, PA14, 100 μM, 48 h/30° C., Polystyrene, read-out: % Inhibition relative to control (0%, <50%, 50-90%, >90%)) is reported as 0% and the inhibition at 500 µM ([5]; Pseudomonas aeruginosa, PA14, 500 μM, 48 h/30° C., Polystyrene, read-out: % Inhibition relative to control (0%, <50%, 50-90%, >90%)) is reported as 0%. For the same molecule, the “effect on biofilm formation” value ([4]; 2 mM in MSgg medium) was “active in inhibiting biofilm formation”, the “minimum concentration (MIC) needed” value [4, 7] was “around 1 mM” and the “biofilm-inhibition assay for B. subtilis” value [4] was “significant inhibition of biofilm growth”.
With `N[C@H](Cc1ccccc1)C(=O)O` [D-Phe, D-phenylalanine] the “biofilm-inhibition assay for B. subtilis” value [4] was “not effective”.
With `N[C@H](Cc1c[nH]c2ccccc12)C(=O)O` [D-Trp, D-tryptophan] the “effect on biofilm formation on defined medium” value (“effect … on defined medium” below) (P.a. Harvard PA14) was “inhibited biofilm formation on defined medium”, the “effect on biofilm formation” value ([4]; 0.5 mM in MSgg medium) was “active in inhibiting biofilm formation” and the “minimum concentration (MIC) needed” value [4, 7] was “around 1 mM”. The “biofilm-inhibition assay for B. subtilis” value [4] was “significant inhibition of biofilm growth”.
For `N[C@H](Cc1ccc(O)cc1)C(=O)O` [D-Tyr, D-tyrosine], the “effect … on defined medium” value (P.a. Harvard PA14) was “inhibited biofilm formation on defined medium”, the “incorporation into the cell wall” value (cell wall) was “incorporated into the cell wall” and the “cell association of TasA fibers” value (TasA fibers) was “largely undecorated with TasA fibers”. The “cell association of TasA-mCherry (fluorescence microscopy of washed cells)” value (TasA-mCherry) was “only low levels of fluorescence”, the “total accumulation of TasA-mCherry (total fluorescence)” value (TasA-mCherry; grown to stationary phase) was “little or no effect” and the yqxM expression ([1]; 3 μM) was “substantially the same as the untreated sample”. For the same molecule, the “number of cells attached to the bottom of the biofilm plate” value (Pseudomonas aeruginosa) was “dramatic decrease”, the “effect on biofilm formation” value (S. aureus (strain SCO1)) was “highly effective in preventing biofilm formation” and the cell growth (B. subtilis [2]; 3 μM) was “substantially the same as the untreated sample”. The “effect on biofilm formation” value ([5]; 10 μM, 48 hours at 30° C., M63) was “effective in preventing biofilm formation”, the “effect on existing pellicles” value (B. subtilis [6]) was “conspicuous breakdown of pellicles” and the “effect on biofilm formation on solid medium” value ([3]; 3 μM) was “inhibited biofilm formation”. For the same molecule, the eps expression (eps operon (strain FC5); 3 μM) was “substantially the same as the untreated sample”, the “effect on pellicle formation” value ([4]; 3 μM added to freshly inoculated culture in biofilm-inducing medium) was “significant inhibition of biofilm growth” and the “minimum concentration (MIC/MBIC) needed to prevent biofilm formation” value [4, 7] was “about 100 nM”. For the same molecule, the “biofilm-inhibition assay for B. subtilis” value [4] was “significant inhibition of biofilm growth”.
In the case of `C[C@@H](N)C(=O)O` [D-alanine], the “biofilm-inhibition assay for B. subtilis” value [4] is reported as “not effective”.
For `N[C@@H](Cc1ccc(O)cc1)C(=O)O` [L-Tyr, L-tyrosine, reference compound], the “effect … on defined medium” value (P.a. Harvard PA14) was “did not”.
With `CSCC[C@H](N)C(=O)O` [L-methionine, reference compound] the “effect on biofilm formation” value ([4]; 5 mM in MSgg medium) was “Only the D-amino acids were active”.
For `N[C@@H](Cc1c[nH]c2ccccc12)C(=O)O` [L-tryptophan, reference compound], the “effect … on defined medium” value (P.a. Harvard PA14) was “did not” and the “effect on biofilm formation” value ([4]; 5 mM in MSgg medium) was “Only the D-amino acids were active”.
